Measured values from a melting point compilation (Tetko et al.; mined from patent text by program, amines drawn as free bases though some values may be those of a salt).

Row | Structure (SMILES) | melting point
1 | N#Cc1ccc2c(c1)CCc1nn(-c3ccccn3)c(O)c1-2 | 232 to 233 °C
2 | COCCCNC1(c2ccccc2Cl)C(=O)N(S(=O)(=O)c2ccc3c(c2)CCN3C(=O)OC)c2ccc(Cl)cc21 (stereo unspecified) | 98 °C
3 | O=CNc1cccc(-c2ccnc3c(C(=O)c4cccs4)cnn23)c1 | 233 to 236 °C
4 | CCCCCCCCCCC1=C(O)C(=O)NC1=O | 109 to 111 °C
5 | COC(=O)C(Oc1ccc(F)cc1)c1ccc(Oc2ccc(S(C)(=O)=O)cc2)cc1 (stereo unspecified) | 135 to 137 °C
6 | O=C(NCCc1ccccn1)Nc1ccccc1[N+](=O)[O-] | 182 °C
7 | OCc1ccc(-c2ccc3[nH]cc(C[C@H]4CCCN4)c3c2)cc1 | 65 to 69 °C
8 | Cc1ccc2c(C(C)C(N)=O)ccc(C(C)C)cc1-2 (stereo unspecified) | 149 to 152 °C
9 | c1cc(-c2noc(C3CC3)n2)ncn1 | 89 to 94 °C
10 | CN(C)CCN1C(=O)C(N)C(=O)N(CC2CCCCC2)c2ccccc21 (stereo unspecified) | 94 to 95 °C
11 | COc1cc2c(cc1OC)C(O)C(N1CCC(N3c4ccccc4NC3C)CC1)C2 (stereo unspecified) | 255 to 256 °C
12 | COC(=O)CCc1cn(Cc2ccc(O)cc2)nc1-c1ccccc1 | 87 to 88 °C
13 | C[C@H](N)c1nc2c(C(F)(F)F)cccc2c(O)c1C(=O)Nc1nccs1 | 270 °C
14 | CC(C)(C)c1ccc(P2Oc3ccccc3-c3ccccc32)cc1 (stereo unspecified) | 90 to 92 °C
15 | Cn1nc(C(F)(F)F)n(-c2ccc(C#Cc3ccccc3)cc2Cl)c1=S | 50 to 53 °C
16 | CC(=O)NCCCC(=O)N1CCCC2=C1CCc1cc(Cl)ccc12 | 142 to 143 °C
17 | CCOC(=O)CCCCn1c(=O)n(CCN2CCN(c3ccccc3OC)CC2)c(=O)c2sccc21 | 118 to 119 °C
18 | COCNC(=O)SC(C(=O)O)c1ccccc1 (stereo unspecified) | 111 to 112 °C
19 | O=C(NC1CCCC1)c1ccccc1C(c1ccc(O)cc1)c1ccc(O)cc1 | 148 to 150 °C
20 | CCNC(=O)c1c([Si](C)(C)C)csc1Cl | 46 to 48 °C
21 | CCOC12CC(C)(C)C(O1)C(OC(=O)c1ccc([N+](=O)[O-])cc1)C=C2C (stereo unspecified) | 144 to 146 °C
22 | CCOc1c(OC)cc(N)cc1OC | 88 to 89 °C
23 | Nc1ccc2sc3ccccc3c(=O)c2c1 | 227 to 229 °C

Row | Structure (SMILES) | melting point
24 | COc1ccc(-c2cncc(C#N)c2Nc2ccc3[nH]ccc3c2C)cc1OC | 130 to 133 °C
25 | Cc1cccc(N(c2ccccc2)c2ccc(-c3ccc(-c4ccc(N(c5ccccc5)c5cccc(C)c5)cc4)cc3)cc2)c1 | 189 to 190 °C
26 | CC(Cc1ccccc1)NC(=O)C(F)(F)F (stereo unspecified) | 82 to 83 °C
27 | CCN1CN2C(=N1)C(c1ccccc1Cl)=NCC1=C2S(=O)CC1 (stereo unspecified) | 199 to 200 °C
28 | COc1cc2c(cc1OC)CCCC(C(=O)N1CCNCC1)=C2 | 137 to 138 °C
29 | Cc1c(CBr)oc2ccc(Cl)cc12 | 81 to 82 °C
30 | CCCCCCCCCCCCCCCCCCOC(=O)CCc1cc(C(C)(C)C)c(OP2Nc3ccccc3O2)c(C(C)(C)C)c1 (stereo unspecified) | 58 to 65 °C
31 | CCc1noc(-c2cn(-c3ccc(OCc4ccccc4)cc3)cn2)n1 | 171 to 172 °C
32 | CC(c1ccc(Cl)cc1)N1CCC2(CC1)Cc1ccccc1O2 (stereo unspecified) | 64 to 66 °C
33 | CC1Cc2cccc(S(N)(=O)=O)c2OS1(=O)=O (stereo unspecified) | 185 to 186 °C
34 | O=C1CCC(c2ccc(Cl)cc2)N1c1ccccc1 (stereo unspecified) | 82.5 to 83.5 °C
35 | O=C1[C@H]2CCC[C@H]2N(C(=O)CCl)c2ccccc2N1Cc1ccccc1 (relative stereo) | 154 to 156 °C
36 | O=CCCCCCCCCCCC(=O)O | 53 to 54 °C
37 | Nc1ccc(Br)cc1CS(=O)(=O)c1ccccc1 | 140 to 141 °C
38 | Fc1cccc(F)c1C1=NC(c2ccc(OCc3ccc4ccccc4c3)cc2)CO1 (stereo unspecified) | 148 to 150 °C
39 | Cc1nc2c(N)nc3ccccc3c2n1CCCCNC(=O)c1ccccc1 | 164 to 170 °C
40 | NCCC1CCSc2[nH]c3ccccc3c21 (stereo unspecified) | 136 to 138 °C
41 | Fc1cccc(COc2ccc(Nc3ncnc4sc(C#Cc5ccccn5)cc34)cc2Cl)c1 | 180 °C
42 | CCCC(=O)N(Cc1ccc(-c2ccccc2C#N)cc1)c1nn(C)cc1C(=O)OCC | 118 to 119 °C
43 | O=C(Nc1cccc(Cl)c1)c1cc(Br)ccc1O | 231 to 232 °C
44 | CN1COc2cc(CCCN3CCOCC3)cnc21 | < 80 °C
45 | CCCn1c(=O)n2c(-c3ccc(C(=O)O)cc3)nnc2c2c1ncn2C | > 315 °C
46 | N#Cc1ccc(-c2cn(-c3ccc(C#N)cc3)c(SCCO)n2)cc1 | > 300 °C

Continued, values first:

Row | melting point | Structure (SMILES)
47 | 181 to 182 °C | Cc1oc(-c2ccc3ccccc3c2)nc1COc1ccc(CO)cc1
48 | 50 to 51 °C | CCOc1cc(Oc2ccc(C(F)(F)F)cn2)ccc1CCCO
49 | 149 to 152 °C | COc1cc2c(cc1-c1ccccc1)CCN=C2C1(c2ccccc2Cl)CCC1
50 | 119 to 121 °C | Cc1c(NC(=O)CC(C)(C)C)cc2c(c1C)OC(C)(C)C2(O)c1ccc(C(C)C)cc1 (stereo unspecified)
51 | 84 to 86 °C | CCCN(c1ccncc1[N+](=O)[O-])n1ccc2ccccc21
52 | 105 to 107 °C | NC(=O)[C@H](O)[C@@H](O)CO
53 | 224 to 227 °C | Cc1cn(-c2ccc3nnc4c(C)nc(C5CCCCC5)n4c3c2)c(C2CCCCC2)n1
54 | 270 °C | Cc1cc(-c2cc(C(F)(F)F)n3ncc(-c4nc(-c5cccc(S(N)(=O)=O)c5)no4)c3n2)ccc1C(F)(F)F
55 | 143 to 144 °C | CCOC(=O)C(=O)c1oc(-n2cnc3ccccc32)nc1-c1ccc(Cl)cc1
56 | 148 to 151 °C | c1cc(CN2CCc3cccc(CCc4nnn[nH]4)c32)cc(OCc2ccc3ccccc3n2)c1
57 | 97.5 to 99.5 °C | CCN(CC)C(=O)COc1cc(N)c(Cl)cc1C(=O)OC
58 | 143 to 145 °C | CSc1ccc(-c2cc(C(F)F)nn2-c2ccc(C(C)=O)cc2)cc1
59 | 165 to 166 °C | COc1cc(C(C)C)c(NC(=O)CN2CCN(CCSc3nc4cccc([N+](=O)[O-])c4o3)CC2)c(C(C)C)c1
60 | 131 to 134 °C | COc1ccc(-n2cnc(-c3cc(OC)cc(OC)c3)c2-c2ccc(OC)c(O)c2)cc1
61 | 108 to 109 °C | Cn1nc(-c2ncc(Cl)cc2F)c([N+](=O)[O-])c1OC(F)F
62 | 106 to 108 °C | COC(=O)CCS(=O)c1cc(C(C)(C)C)c(O)c(C(C)(C)C)c1 (stereo unspecified)
63 | 154 to 155 °C | CONC(=O)[C@@H](Cc1ccccc1)NC(=O)OC
64 | 251 °C | Cc1[nH]n(C2CCOC2)c2nc(-c3ccncc3)nc(=O)c1-2 (stereo unspecified)
65 | 164 to 166 °C | CC(C)N(CCN1C(=O)/C(=N/NC(=O)NC2CCCCC2)c2ccccc21)C(C)C
66 | 186 to 189 °C | O=C(N1c2ccccc2C(Br)C(Br)c2ccccc21)C(F)(F)F (stereo unspecified)
67 | 101 °C | COc1ccc(OC)c(C(=O)/C=C/c2ccc3c(c2)OCO3)c1
68 | 120 to 121 °C | CCOC(=O)C(=O)Nc1c([N+](=O)[O-])cc(C(C)=O)c2c1CCCC2
69 | 132 to 134 °C | C=C(C)Cc1c(C)c2c(c(C)c1O)CCN2C=O
70 | > 250 °C | COc1cccc(-c2cc(=O)c3ccccc3[nH]2)c1SCc1ccccc1
71 | 100 to 103 °C | CCn1cnc2c(Cl)nc(Cl)nc21
72 | 119 to 121 °C | O=C1CCC(N2Cc3c(OCc4ccc(CN5CCCOCC5)cc4)cccc3C2=O)C(=O)N1 (stereo unspecified)
73 | 254 to 255 °C | O=C(NCc1ccc(Cl)cc1)c1cnc2c(F)cc(Br)cc2c1
74 | 65 to 68 °C | CCCc1nc2cnc3cc(C)ccc3c2o1

Row | melting point | Structure (SMILES)
75 | 33 °C | CCCCCc1ncc([C@H]2CC[C@H](CCC)CC2)cn1
76 | 81 to 82 °C | COc1ccc(-c2sc(-c3ccccc3)cc2OC(C)=O)cc1
77 | 159 to 161 °C | Cc1ccc(C2c3c(C)c(N4CCN(C(=O)c5ccc(C#N)cc5)CC4)c(C)c(C)c3OC2(C)C)cc1 (stereo unspecified)
78 | 120 to 121 °C | COc1ccc(N2CCN(c3c(C)c(C)c4c(c3C)C(OCc3ccccn3)C(C)(C)O4)CC2)cc1 (stereo unspecified)
79 | 114 to 115 °C | N#Cc1[nH]ccc1-c1ccccc1Cl
80 | 262 to 264 °C | Cc1nc(Cn2cnc3c2c(=O)[nH]c(=O)n3C)no1
81 | 123 to 124 °C | CCCCCc1c(C(C)C)cc(C(C)C)c(C(C)=O)c1-c1ccc(F)cc1
82 | 169 to 170 °C | CN(CC1(C)Cn2cc([N+](=O)[O-])nc2O1)C(=O)OCc1ccc(F)cc1 (stereo unspecified)
83 | 270 °C | O=C1C2=C(SCCO2)C(O)N1c1ccc2ccc(Cl)cc2n1 (stereo unspecified)
84 | 181 to 183 °C | CCOC(=O)c1cc2c(OCC(O)CNC(C)(C)C)cc(C)cc2[nH]1 (stereo unspecified)
85 | 113 to 114 °C | Cc1c(OCC(F)(F)F)ccnc1CSc1nc2ccccc2n1NCCCO
86 | 123 to 126 °C | CC(=O)NC1Cc2ccc(O)cc2C1 (stereo unspecified)
87 | 209 to 210 °C | CC(C)(C)C(=O)c1c[nH]c2ncc(Cl)nc12
88 | 102 to 103 °C | CCC(=CC(CSc1nc2ccccc2s1)=NO)C(C)[N+](=O)[O-] (stereo unspecified)
89 | 130 °C | O=C(Nc1ccc(F)cc1)Oc1ccc2c(c1)N(Cc1ccccc1)CCC2
90 | 178 to 179 °C | CC(C)(Cc1ccccc1)C(NC(=O)c1cccc(Cl)c1)Nc1c(Nc2cccnc2)c(=O)c1=O (single isomer, unassigned; (-))
91 | > 300 °C | CCn1c2ccc(C)cc2c(=O)c2c1cnn2C
92 | 153 to 154 °C | CCOC(=O)Cn1c(C(=O)NCc2nnc(C)n2-c2sc(C)cc2C(=O)c2ccccc2Cl)cc2ccccc21
93 | > 250 °C | NCc1ccccc1CN
94 | 205 to 206 °C | CCOCc1ncc[nH]1
95 | 166 to 168 °C | CCCOC(=O)c1c(Cn2ccnc2)nc2cc(OC)c(OC)cc2c1-c1ccc(OC)c(OC)c1
96 | 174 to 177 °C | CCC1(c2ccccc2)CC(N2C(=O)c3ccccc3C2=O)C(=O)NC1=O (stereo unspecified)
97 | 189 °C | COC(=O)C1=C(C)NN=C(c2ccccc2)C1c1cccc(Cl)c1 (stereo unspecified)
98 | 174 °C | CC(=O)N(C(C)=O)c1cnn(-c2cccc(C(F)(F)F)c2)c(=O)c1-c1cccc(C(F)(F)F)c1
99 | 208 to 210 °C | CNCC1(CF)CCN(c2c(F)cc3c(=O)c(C(=O)O)cn(C4CC4)c3c2OC)C1 (stereo unspecified)
100 | 209 to 210 °C | Cn1ncc(/C=C/C(=O)Nc2ccc(Cc3nccs3)cc2)c1-c1ccc(F)cc1
101 | 165 °C | COc1nnc(-c2ccccc2)c(=O)n1N
